Results reported in US20200078303A1, “PHARMACEUTICAL FORMULATIONS OF SUVOREXANT” (Druggability Technologies IP HoldCo Ltd., priority 2016, published 2020).

Tests used:
[1] = test system: human plasma proteins; settings: cited from earlier work
[2] = cited from earlier work
[3] = Rat oral pharmacokinetics at 3 mg/kg; type: in vivo; settings: fasted rats
Method: A rat study with oral administration at 3 mg/kg was performed. Two pharmaceutical formulations of the present invention, the crystalline compound and crushed BELSOMRA® tablets were administered and plasma concentrations were measured. Absorption following the administration of the pharmaceutical formulations of the present invention was immediate, while absorption for the crystalline and BELSOMRA® were slower.

Row | Compound | bound to human plasma proteins [1] | mean absolute bioavailability ([2]; 10 mg) | mean t½ ([2]; 95% CI: 12 to 13) | median tmax ([2]; fasted conditions) | tmax range ([2]; fasted conditions) | change in AUC or Cmax with high-fat meal ([2]; high-fat meal) | delay in tmax with high-fat meal ([2]; high-fat meal) | mean volume of distribution ([2]; human, in vivo) | radiolabeled dose recovered in the feces ([2]; human, in vivo) | radiolabeled dose recovered in the urine ([2]; human, in vivo) | accumulation ([2]; once-daily dosing) | time to steady-state ([2]; once-daily dosing) | dose proportionality of exposure ([2]; range of 10-80 mg) | absorption after oral administration (in words) [3]
1 | Cc1ccc(-n2nccn2)c(C(=O)N2CCN(c3nc4cc(Cl)ccc4o3)CC[C@H]2C)c1 [Suvorexant, [(7R)-4-(5-chloro-2-benzoxazolyl)hexahydro-7-methyl-1H-1,4-diazepin-1-yl][5-methyl-2-(2H-1,2,3-triazol-2-yl)phenyl]methanone] | > 99% | 82% | approximately 12 hours | 2 h | 30 to 360 min | no meaningful change | approximately 1.5 hours | approximately 49 liters | approximately 66% | 23% | 1- to 2 fold | ≤ 3 days | less than strictly dose-proportional | –
2 | Cc1ccc(-n2nccn2)c(C(=O)N2CCN(c3nc4cc(Cl)ccc4o3)CC[C@H]2C)c1 [crystalline compound] | – | – | – | – | – | – | – | – | – | – | – | – | – | slower
